{"source": "paper PMC4301037", "about": "“Identification and Structure–Function Analysis of Subfamily Selective G Protein-Coupled Receptor Kinase Inhibitors” (ACS Chemical Biology, 2014)", "key": {"[1]": {"molecular_target": "T1, GRK1 (Bos taurus, UniProt P28327)", "T1 construct": "Bovine GRK1_1–535, bovine and human GRK2S670A; made in house", "T1 sequence (P28327 1-535)": "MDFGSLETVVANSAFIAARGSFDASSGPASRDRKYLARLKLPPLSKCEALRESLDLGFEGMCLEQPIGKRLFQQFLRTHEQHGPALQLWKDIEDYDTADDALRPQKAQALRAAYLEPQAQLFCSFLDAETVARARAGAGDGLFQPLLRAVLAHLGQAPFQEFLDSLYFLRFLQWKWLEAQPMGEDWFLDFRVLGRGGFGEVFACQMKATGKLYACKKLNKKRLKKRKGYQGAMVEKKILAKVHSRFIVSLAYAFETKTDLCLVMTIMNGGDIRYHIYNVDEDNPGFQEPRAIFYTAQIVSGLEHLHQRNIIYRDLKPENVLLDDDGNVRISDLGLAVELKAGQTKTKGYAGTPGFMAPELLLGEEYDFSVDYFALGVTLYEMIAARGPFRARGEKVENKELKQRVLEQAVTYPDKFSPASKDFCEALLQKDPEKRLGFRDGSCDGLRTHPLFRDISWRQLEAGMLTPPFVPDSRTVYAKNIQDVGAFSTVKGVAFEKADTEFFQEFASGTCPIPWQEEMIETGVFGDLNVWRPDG", "assay": "DSF retest (confirmation), GRK1", "format": "binding, bovine", "conditions": "for GRK1 Tm: 0.2 mg mL^–1 kinase; for GRK1 ΔTm: relative to intrinsic melting point of the kinase"}, "[2]": {"molecular_target": "T2, protein kinase A (PKA) (Mus musculus, UniProt P05132)", "T2 construct": "His tag (inferred from pET15b vector and Ni-NTA column) (N); host or cells: E. coli Rosetta(DE3)pLysS", "assay": "DSF retest (confirmation), PKA", "format": "binding", "conditions": "for PKA Tm: 0.2 mg mL^–1 kinase; for PKA ΔTm: relative to intrinsic melting point of the kinase", "procedure": "Fourteen compounds (Figure 1a–c), including all GRK2 hits except staurosporine, and the most stabilizing pyrrolopyrimidine-containing compounds were obtained from GSK and retested using DSF on GRKs representing each vertebrate subfamily (GRK1, 2, and 5) (Table 1). […] The ability of these compounds to shift the Tm of the related AGC family kinase member protein kinase A (PKA) was also assessed (Table 1). In no case was ΔTm greater for PKA than for one of the tested GRKs. […]. There was no correlation for GRK1 (Figure 2c).\nDSF was conducted using a ThermoFluor plate reader (Johnson & Johnson) in a buffer containing 20 mM HEPES, pH 7.0, 5 mM MgCl2, 2 mM DTT, and 1 mM CHAPS with 0.2 mg mL^–1 final concentration of GRK or PKA and 100 μM 1-anilinonaphthalene-8-sulfonic acid.[14]"}, "[3]": {"molecular_target": "T1, GRK1", "assay": "In vitro phosphorylation assay (tubulin, 5 μM ATP), GRK1", "format": "biochemical, bovine", "conditions": "read-out: GRK1 log IC50 (converted)"}, "[4]": {"test_system": "GRK1, 2, and 5 and PKA", "assay": "Ssel selectivity score calculated from inhibition of GRK1, 2, 5 and PKA"}, "[5]": {"molecular_target": "T3, PKA (Mus musculus, UniProt P05132)", "T3 construct": "His tag (inferred from pET15b vector and Ni-NTA column) (N); host or cells: E. coli Rosetta(DE3)pLysS", "assay": "PKA inhibition assay (ADP-Glo, CREBtide, 100 μM ATP)", "format": "biochemical", "conditions": "logarithm of IC50 (−3.3 corresponds to 0.5 mM, footnote c); 438 nM PKA, 100 μM ATP, CREBtide; read-out: PKA log IC50 (converted)"}, "[6]": {"molecular_target": "T4, bovine GRK5 (Bos taurus, UniProt P43249)", "T4 construct": "when using full-length kinases as the receptor[37] instead of isolated kinase domains; made in house", "assay": "Primary DSF inhibitor screen, GRK5", "format": "binding", "conditions": "10 μM compound; for ΔTm, primary screen, GRK5 / ΔTm at 10 µM: 2 μM kinase, relative to DMSO control; for ΔTm at 10 µM: read-out: ΔTm, primary screen, GRK5"}, "[7]": {"molecular_target": "T5, GRK5 (Bos taurus, UniProt P43249)", "T5 construct": "when using full-length kinases as the receptor[37] instead of isolated kinase domains; made in house", "assay": "DSF retest (confirmation), GRK5", "format": "binding, bovine"}, "[8]": {"molecular_target": "T6, human GRK2S670A (Homo sapiens, UniProt P25098, S670A)", "T6 construct": "when using full-length kinases as the receptor[37] instead of isolated kinase domains; made in house", "T6 sequence (P25098 1-689 S670A)": "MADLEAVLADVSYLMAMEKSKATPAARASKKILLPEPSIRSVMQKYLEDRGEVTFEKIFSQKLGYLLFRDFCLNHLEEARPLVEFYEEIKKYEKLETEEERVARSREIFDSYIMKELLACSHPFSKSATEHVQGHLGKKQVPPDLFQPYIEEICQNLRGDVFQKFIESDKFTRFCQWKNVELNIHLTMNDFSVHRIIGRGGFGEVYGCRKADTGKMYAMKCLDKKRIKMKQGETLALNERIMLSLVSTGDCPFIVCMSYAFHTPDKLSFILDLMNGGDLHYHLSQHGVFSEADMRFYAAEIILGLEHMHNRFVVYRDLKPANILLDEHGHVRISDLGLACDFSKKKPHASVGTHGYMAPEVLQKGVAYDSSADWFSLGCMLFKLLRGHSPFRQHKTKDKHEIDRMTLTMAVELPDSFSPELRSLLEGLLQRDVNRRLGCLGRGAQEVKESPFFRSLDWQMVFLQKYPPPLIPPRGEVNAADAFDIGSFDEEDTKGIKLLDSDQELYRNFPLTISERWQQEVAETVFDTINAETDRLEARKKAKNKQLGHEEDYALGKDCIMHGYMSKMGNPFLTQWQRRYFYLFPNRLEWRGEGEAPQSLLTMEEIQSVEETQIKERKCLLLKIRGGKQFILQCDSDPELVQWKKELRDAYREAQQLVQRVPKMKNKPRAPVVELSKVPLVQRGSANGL", "assay": "Primary DSF (differential scanning fluorimetry) inhibitor screen, GRK2", "format": "binding"}, "[9]": {"conditions": "selectivity score from inhibition of GRK1, 2, 5 and PKA, <0.5 selective"}}, "note": "Like-named read-outs stand apart in the source and are kept apart here.", "data": [{"smiles": "CC1=C(C(=O)Nc2ccc3[nH]ncc3c2)C(c2ccc(F)cc2)NC(=O)N1", "note": "(stereo not drawn) [GSK180736A]", "values": [{"measurement": "GRK1 Tm", "setting": "[1]", "result": 25.3, "unit": "°C"}, {"measurement": "GRK1 ΔTm", "setting": "[1]", "result": 5.4, "unit": "°C"}, {"measurement": "PKA Tm", "setting": "[2]", "result": 49.2, "unit": "°C"}, {"measurement": "PKA ΔTm", "setting": "[2]", "result": 3.8, "unit": "°C"}, {"measurement": "IC50", "setting": "[3]", "result": "> 1000", "unit": "µM"}, {"measurement": "Ssel", "setting": "[4]; [9]", "result": 0.022}]}, {"smiles": "Fc1ccc([C@@H]2CCNC[C@H]2COc2ccc3c(c2)OCO3)cc1", "note": "[paroxetine]", "values": [{"measurement": "PKA Tm", "setting": "[2]", "result": 50.1, "unit": "°C"}, {"measurement": "PKA ΔTm", "setting": "[2]", "result": 4.7, "unit": "°C"}, {"measurement": "IC50", "setting": "[5]", "result": "> 501", "unit": "µM"}, {"measurement": "Ssel", "setting": "[4]", "result": 0.085}]}, {"smiles": "COc1cc2c(cc1Nc1nc(Nc3ccsc3C(N)=O)c3cc[nH]c3n1)N(C(=O)CN(C)C)CCC2(C)C", "note": "[GSK2163632A]", "values": [{"measurement": "ΔTm, primary screen, GRK5", "setting": "[6]", "result": 9.2, "unit": "°C"}, {"measurement": "ΔTm at 10 µM", "setting": "[6]", "result": 9.25, "unit": "°C"}, {"measurement": "rank in the primary screen, GRK5", "setting": "[6]; rank ordering of compounds in primary DSF screen", "result": 4}, {"measurement": "GRK1 Tm", "setting": "[1]", "result": 26.3, "unit": "°C"}, {"measurement": "GRK1 ΔTm", "setting": "[1]", "result": 6.4, "unit": "°C"}, {"measurement": "GRK5 Tm", "setting": "[7]; 0.2 mg mL^–1 kinase", "result": 33.0, "unit": "°C"}, {"measurement": "GRK5 ΔTm", "setting": "[7]; relative to intrinsic melting point of the kinase", "result": 6.3, "unit": "°C"}, {"measurement": "PKA Tm", "setting": "[2]", "result": 48.5, "unit": "°C"}, {"measurement": "PKA ΔTm", "setting": "[2]", "result": 3.1, "unit": "°C"}, {"measurement": "IC50", "setting": "[3]", "result": 0.126, "unit": "µM"}, {"measurement": "IC50", "setting": "[5]", "result": "> 501", "unit": "µM"}, {"measurement": "Ssel", "setting": "[4]; [9]", "result": 0.199}]}, {"smiles": "COc1cc(C)c(N(C)C(=O)CN(C)C)cc1Nc1nc(Nc2cccc(F)c2C(N)=O)c2cc[nH]c2n1", "note": "[GSK2219385A]", "values": [{"measurement": "ΔTm at 10 µM", "setting": "[6]", "result": 3.58, "unit": "°C"}]}, {"smiles": "CC(C)(C)c1nc2c3ccc(F)cc3c3c(=O)[nH]ccc3c2[nH]1", "note": "[JAK Inhibitor I, 2-(1,1-Dimethylethyl)-9-fluoro-3,6-dihydro-7H-benz[h]-imidaz[4,5-f]isoquinolin-7-one]", "values": [{"measurement": "ΔTm, primary screen, GRK5", "setting": "[6]", "result": 8.13, "unit": "°C"}]}, {"smiles": "CN[C@@H]1C[C@H]2O[C@@](C)([C@@H]1OC)n1c3ccccc3c3c4c(c5c6ccccc6n2c5c31)C(=O)NC4", "note": "[Staurosporine]", "values": [{"measurement": "ΔTm, primary screen, GRK2", "setting": "[8]; 10 μM compound, 2 μM kinase, relative to DMSO control", "result": 5.4, "unit": "°C"}, {"measurement": "ΔTm at 10 µM", "setting": "[8]; read-out: ΔTm, primary screen, GRK2, 10 μM compound, 2 μM kinase, relative to DMSO control", "result": 5.37, "unit": "°C"}, {"measurement": "ΔTm, primary screen, GRK5", "setting": "[6]", "result": 12, "unit": "°C"}, {"measurement": "ΔTm at 10 µM", "setting": "[6]", "result": 11.9, "unit": "°C"}]}, {"smiles": "O=C(Nc1ccc(Oc2ccc3nc(NC(=O)c4ccccc4)[nH]c3c2)cc1)Nc1cc(C(F)(F)F)ccc1F", "note": "[GW709042A]", "values": [{"measurement": "ΔTm at 10 µM", "setting": "[6]", "result": 3.88, "unit": "°C"}]}, {"smiles": "NS(=O)(=O)c1ccc(NC=C2C(=O)Nc3ccc4ncsc4c32)cc1", "note": "[GW589933X]", "values": [{"measurement": "ΔTm at 10 µM", "setting": "[6]", "result": 4.8, "unit": "°C"}]}, {"smiles": "COc1ccc2c(c1)/C(=C/c1cnc[nH]1)C(=O)N2", "note": "[SU9516, 3-[1-(3H-Imidazol-4-yl)-meth-(Z)-ylidene]-5-methoxy-1,3-dihydro-indol-2-one]", "values": [{"measurement": "ΔTm at 10 µM", "setting": "[6]", "result": 3.59, "unit": "°C"}]}, {"smiles": "O=C(O)c1ccc2c3c1cccc3c(=O)n1c3ccccc3nc21", "note": "[STO-609]", "values": [{"measurement": "ΔTm at 10 µM", "setting": "[6]", "result": 3.24, "unit": "°C"}]}, {"smiles": "O=C1Nc2ccccc2/C1=C\\c1cnc[nH]1", "note": "[(Z,E)-3-(Imidazol-4-ylmethylene)indolin-2-one]", "values": [{"measurement": "ΔTm, primary screen, GRK5", "setting": "[6]", "result": 4.8, "unit": "°C"}]}]}
